Experimental data reported in PubChem BioAssay (NCI).
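Tested at 5 concentrations; 48 h exposure; 96-well plates; endpoints linearly interpolated, else capped at highest concentration. Abbreviation: GI50, concentration required for 50% inhibition of growth. TGI is the concentration that stops growth completely.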

How the values were obtained:
Assay in all cases: inhibition of tumour cell growth, NCI panel, 48 h
[1] = test system: SNB-75 CNS
[2] = test system: NCI-H226 lung
[3] = test system: SR leukemia
[4] = test system: HT29 colon
[5] = test system: OVCAR-3 ovarian
[6] = test system: SK-OV-3 ovarian
[7] = test system: MALME-3M melanoma
[8] = test system: A549 NSCLC
[9] = test system: HL-60(TB) leukemia
[10] = test system: IGROV1 ovarian
[11] = test system: MDA-MB-231 breast
[12] = test system: MOLT-4 leukemia
[13] = test system: SK-MEL-28 melanoma
[14] = test system: HOP-62 NSCLC
[15] = test system: SNB-19 CNS
[16] = test system: EKVX NSCLC
[17] = test system: ACHN renal
[18] = test system: BT-549 breast
[19] = test system: SK-MEL-2 melanoma
[20] = test system: NCI-H460 lung
[21] = test system: SN12C renal
[22] = test system: SF-539 CNS
[23] = test system: NCI-H23 lung
[24] = test system: MCF7 breast
[25] = test system: TK-10 renal
[26] = test system: OVCAR-5 ovarian
[27] = test system: RPMI-8226 leukemia
[28] = test system: A498 renal
[29] = test system: DU-145 prostate
[30] = test system: LOX IMVI melanoma
[31] = test system: UACC-62 melanoma
[32] = test system: CCRF-CEM leukemia
[33] = test system: CAKI-1 renal
[34] = test system: K-562 leukemia
[35] = test system: UACC-257 melanoma
[36] = test system: UO-31 renal
[37] = test system: 786-0 renal
[38] = test system: KM12 colon
[39] = test system: HCT-116 colon
[40] = test system: HS 578T breast
[41] = test system: M14 melanoma
[42] = test system: SF-295 CNS
[43] = test system: RXF 393 renal
[44] = test system: HOP-92 NSCLC
[45] = test system: NCI-H522 lung
[46] = test system: SF-268 CNS
[47] = test system: NCI/ADR-RES ovarian
[48] = test system: SK-MEL-5 melanoma
[49] = test system: PC-3 prostate
[50] = test system: MDA-MB-435
[51] = test system: U251 CNS
[52] = test system: OVCAR-8 ovarian
[53] = test system: HCT-15 colon

Question: Which GI50 [1] does the source give for `Cc1sc2c(c1C)C(c1ccc(Cl)cc1)=N[C@@H](CC(=O)NCCCCCNC(=O)COc1ccc(C3CCC(=O)NC3=O)cc1)c1nnc(C)n1-2` (some centres undefined) here?
Answer: < 18.9 nM

Question: And the TGI [1]?
Answer: 389 nM

Question: And the GI50 [2]?
Answer: 476 nM

Question: And the TGI [2]?
Answer: > 100000 nM

Question: What about the GI50 [3] of the same compound?
Answer: 64.5 nM

Question: And the TGI [3]?
Answer: > 100000 nM

Question: What about the GI50 [4] of the same compound?
Answer: 950 nM

Question: And the TGI [4]?
Answer: > 100000 nM

Question: What about the GI50 [5] of the same compound?
Answer: 2300 nM

Question: What about the TGI [5] of the same compound?
Answer: > 100000 nM

Question: And the GI50 [6]?
Answer: 3310 nM

Question: And the TGI [6]?
Answer: > 100000 nM

Question: What about the GI50 [7] of the same compound?
Answer: 788 nM

Question: What about the TGI [7] of the same compound?
Answer: > 100000 nM

Question: And the GI50 [8]?
Answer: 3960 nM

Question: And the TGI [8]?
Answer: > 100000 nM

Question: And the TGI [9]?
Answer: 99.5 nM

Question: And the GI50 [10]?
Answer: 269 nM

Question: And the TGI [10]?
Answer: > 100000 nM

Question: And the GI50 [11]?
Answer: 90.8 nM

Question: And the TGI [11]?
Answer: > 100000 nM

Question: And the GI50 [12]?
Answer: 113 nM

Question: What about the TGI [12] of the same compound?
Answer: > 100000 nM

Question: What about the GI50 [13] of the same compound?
Answer: 901 nM

Question: What about the TGI [13] of the same compound?
Answer: > 100000 nM

Question: And the GI50 [14]?
Answer: 644 nM

Question: What about the TGI [14] of the same compound?
Answer: > 100000 nM

Question: And the GI50 [15]?
Answer: 438 nM

Question: And the TGI [15]?
Answer: > 100000 nM

Question: And the GI50 [16]?
Answer: 2500 nM

Question: And the TGI [16]?
Answer: > 100000 nM

Question: And the GI50 [17]?
Answer: 20700 nM

Question: What about the TGI [17] of the same compound?
Answer: > 100000 nM

Question: And the GI50 [18]?
Answer: 54.7 nM

Question: And the TGI [18]?
Answer: 541 nM

Question: And the GI50 [19]?
Answer: 371 nM

Question: What about the TGI [19] of the same compound?
Answer: > 100000 nM

Question: And the GI50 [20]?
Answer: 47400 nM

Question: What about the TGI [20] of the same compound?
Answer: > 100000 nM

Question: What about the GI50 [21] of the same compound?
Answer: 293 nM

Question: And the TGI [21]?
Answer: > 100000 nM

Question: And the GI50 [22]?
Answer: 439 nM

Question: And the TGI [22]?
Answer: > 100000 nM

Question: And the GI50 [23]?
Answer: 13100 nM

Question: What about the TGI [23] of the same compound?
Answer: > 100000 nM

Question: And the GI50 [24]?
Answer: 39.7 nM

Question: And the TGI [24]?
Answer: > 100000 nM

Question: What about the GI50 [25] of the same compound?
Answer: 1700 nM

Question: What about the TGI [25] of the same compound?
Answer: > 40900 nM

Question: What about the GI50 [26] of the same compound?
Answer: 795 nM

Question: And the TGI [26]?
Answer: > 100000 nM

Question: What about the GI50 [27] of the same compound?
Answer: 38 nM

Question: What about the TGI [27] of the same compound?
Answer: 1120 nM

Question: And the GI50 [28]?
Answer: 6270 nM

Question: And the TGI [28]?
Answer: > 100000 nM

Question: And the GI50 [29]?
Answer: > 100000 nM

Question: And the TGI [29]?
Answer: > 100000 nM

Question: And the GI50 [30]?
Answer: 1480 nM

Question: And the TGI [30]?
Answer: > 42900 nM

Question: And the GI50 [31]?
Answer: 429 nM

Question: What about the TGI [31] of the same compound?
Answer: > 100000 nM

Question: And the GI50 [32]?
Answer: 51.9 nM

Question: What about the TGI [32] of the same compound?
Answer: > 100000 nM

Question: And the GI50 [33]?
Answer: 845 nM

Question: What about the TGI [33] of the same compound?
Answer: > 100000 nM

Question: What about the GI50 [34] of the same compound?
Answer: 565 nM

Question: And the TGI [34]?
Answer: > 100000 nM

Question: What about the GI50 [35] of the same compound?
Answer: > 26300 nM

Question: What about the TGI [35] of the same compound?
Answer: > 100000 nM

Question: And the GI50 [36]?
Answer: 3200 nM

Question: What about the TGI [36] of the same compound?
Answer: 53900 nM

Question: And the GI50 [37]?
Answer: 2080 nM

Question: What about the TGI [37] of the same compound?
Answer: > 100000 nM

Question: And the GI50 [38]?
Answer: 483 nM

Question: What about the TGI [38] of the same compound?
Answer: > 100000 nM

Question: And the GI50 [39]?
Answer: 1690 nM

Question: What about the TGI [39] of the same compound?
Answer: > 100000 nM

Question: And the GI50 [40]?
Answer: 154 nM

Question: What about the TGI [40] of the same compound?
Answer: > 100000 nM

Question: What about the GI50 [41] of the same compound?
Answer: 1010 nM

Question: What about the TGI [41] of the same compound?
Answer: > 100000 nM

Question: What about the GI50 [42] of the same compound?
Answer: 3110 nM

Question: What about the TGI [42] of the same compound?
Answer: > 100000 nM

Question: What about the GI50 [43] of the same compound?
Answer: 2170 nM

Question: And the TGI [43]?
Answer: > 100000 nM

Question: And the GI50 [44]?
Answer: 61.9 nM

Question: What about the GI50 [45] of the same compound?
Answer: 4370 nM

Question: And the TGI [45]?
Answer: > 100000 nM

Question: And the GI50 [46]?
Answer: 629 nM

Question: And the TGI [46]?
Answer: > 100000 nM

Question: And the GI50 [47]?
Answer: > 100000 nM

Question: What about the TGI [47] of the same compound?
Answer: > 100000 nM

Question: What about the GI50 [48] of the same compound?
Answer: 345 nM

Question: And the TGI [48]?
Answer: 3450 nM

Question: And the GI50 [49]?
Answer: 134 nM

Question: What about the TGI [49] of the same compound?
Answer: > 100000 nM

Question: What about the GI50 [50] of the same compound?
Answer: 171 nM

Question: And the TGI [50]?
Answer: > 100000 nM

Question: What about the GI50 [51] of the same compound?
Answer: 3090 nM

Question: What about the TGI [51] of the same compound?
Answer: > 100000 nM

Question: What about the GI50 [52] of the same compound?
Answer: 298 nM

Question: And the TGI [52]?
Answer: > 100000 nM

Question: And the GI50 [53]?
Answer: 3770 nM

Question: What about the TGI [53] of the same compound?
Answer: > 89500 nM
